Test results published in PubChem BioAssay AID179 (DTP/NCI, 2004).
pEC50, pIC50: −log10 of the molar value. The source made the active and inactive calls.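 The calls were made as follows: active = compounds giving half or more protection of infected cells from virus-caused growth loss, again on retest; inactive = the rest.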 Where a SMILES comes first, the peptide text is derived from it.

Tested on: CEM cells HIV-1 protection, formazan growth assay
Assay: NCI AIDS Antiviral Assay
Details: for pIC50: measured here: growth of uninfected CEM cells
How it was run: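 Soluble formazan readout of cell growth; CEM cells ± HIV-1; 5 drug concs. ≥50% protection → retest; ≥50% again = moderately active; reproducible 100% = confirmed active.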

SMILES | pEC50 | pIC50 | outcome
CCOC(=O)C(Cc1c[nH]c2cc([N+](=O)[O-])ccc12)NS(=O)(=O)c1ccc2ccccc2c1 (stereo not given) | < 4.81 | < 4.81 | –
CCn1cc(C(=O)O)c(=O)c2ccc(C)nc21 | – | – | inactive
Cc1ccc2c(ccc(/C=C/c3ccc(O)c4ncccc34)[n+]2C)c1 | < 4.54 | 5.23 | –
N#C/C(=C\c1ccc(O)c(O)c1)C(=O)OCc1ccccc1COC(=O)/C(C#N)=C/c1ccc(O)c(O)c1 | < 3.70 | 5.06 | –
CN1CCN(c2ccc3c(c2)NCC(=O)N3)CC1 | < 3.70 | 3.93 | –
O=C(O)CCCC#CCCCC(=O)O | < 3.70 | < 3.70 | –
CC(=O)/C(C)=N/NC(=O)c1ccccc1O | < 5.32 | < 5.32 | –
Cc1nc(N)c(N=O)c(=O)[nH]1 | < 3.70 | < 3.70 | –
CC(=O)[O-].COc1cccc(/C=N/[N-]C(=O)c2ccncc2)c1.[OH3+].[OH3+].[OH3+].[Zn+2] | < 3.70 | 5.41 | –
C1Cn2nnnc2N1 | < 2.65 | < 2.65 | –
COc1ccc2nc(N/N=C/C(C)=N/Nc3cc(C)c4cc(OC)ccc4n3)cc(C)c2c1 | < 4.00 | 4.84 | –
CC1C2CC(CC2O)C1(C)C (stereo not given) | < 2.79 | < 2.79 | –
O=C(O)CN(CC(=O)O)Cc1ccn(-c2cccc(-n3ccc(CN(CC(=O)O)CC(=O)O)n3)n2)n1 | < 3.70 | < 3.70 | –
Cn1cc(B(O)O)c(=O)[nH]c1=O | < 3.70 | < 3.70 | –
N#CC1=C(N2CCOCC2)CCC1 | < 3.70 | < 3.70 | –
Cc1ccc(S(=O)(=O)N/N=C/c2oc(-c3ccncc3)c(-c3ccncc3)c2[N+](=O)[O-])cc1 | < 4.81 | < 4.81 | –
CN1CCC(O)(c2ccc(F)cc2)C(C(=O)c2ccc(F)cc2)C1 (stereo not given) | < 3.70 | 4.14 | –
CC(NC(=O)C(CO)NC(=O)C(C)NC(=O)C(C)NC(=O)C(CC(N)=O)NC(=O)CN)C(N)=O (stereo not given) (H-GNAASA-NH2; configuration not given here) | – | – | inactive
COc1ccc(/C(CC2OC(=O)c3ccccc32)=N\NC(=O)C[N+](C)(C)C)cc1 (stereo not given) | < 4.11 | 4.62 | –
CCCCCCCCCCCCCCCc1ncc(C)[nH]1 | < 4.61 | < 4.61 | –
CNC(=O)O/N=C\C=N\OC(=O)NC | – | – | inactive
Cc1cn(C2CC(N=[N+]=[N-])C(COC(=O)[C@@]3(O)CC[C@H]4[C@@H]5CCC6=CC(=O)CC[C@]6(C)[C@H]5C(O)C[C@@]43C)O2)c(=O)[nH]c1=O (stereo not given in full) | 4.57 | 3.80 | –
OC(CCN1CCOCC1)(c1cccc(Cl)c1)C1CCCCC1 (stereo not given) | < 3.70 | 4.38 | –

SMILES | pEC50 | pIC50 | outcome
COC(=O)CCC(=O)Nc1cc(C)ccc1C | < 2.97 | < 2.97 | –
O=C(O)Cc1c(-c2ccc([N+](=O)[O-])cc2)c(=O)oc2cc(O)ccc12 | < 3.70 | 4.67 | –
CN(C)C(=O)N(CCC#N)CCN(C(=O)N(C)C)c1ccccc1 | < 3.70 | < 3.70 | –
COc1cc(OC)c(NC2=NCCO2)cc1Cl | < 3.70 | 4.87 | –
O=C(Nc1ccc(N=Nc2ccccc2)cc1)Sc1ccccc1C(=O)O | – | – | inactive
COc1cccc(-c2nc(-c3cnccn3)n(C3OC(CO)C(O)C(O)C3O)n2)c1 (stereo not given) | < 3.70 | < 3.70 | –
CC(C)=CC(=O)Cc1nc2cc(C)c(C)cc2[nH]c1=O | – | – | inactive
Cc1c(N)nc(C2CC(=O)N2CC(N)C(N)=O)nc1C(=O)NC(C(=O)NC(C)C(O)C(C)C(=O)NC(C(=O)NCCc1nc(-c2nc(C(=O)NCCNCC(C)O)cs2)cs1)C(C)O)C(OC1OC(CO)C(O)C(O)C1OC1OC(CO)C(O)C(OC(N)=O)C1O)c1cnc[nH]1 (stereo not given) | – | – | inactive
S=C1NC2=C(COC/C2=C\c2ccccc2Cl)C(c2ccccc2Cl)N1 (stereo not given) | – | – | inactive
CC(C)(C)OC1=C(OC(C)(C)C)C(O)(c2ccccc2)C1=O (stereo not given) | – | – | inactive
N#Cc1c(N=Cc2ccccc2)c(C(=O)Nc2ccccc2)n2c1CCCC2 | < 3.70 | < 3.70 | –
O=C1COc2cc(N3CCN(c4cccc(C(F)(F)F)c4)CC3)ccc2N1 | < 3.70 | < 3.70 | –
O=C1c2ccccc2-c2c1c1ccccc1c(=O)n2-c1cccnc1 | < 4.51 | 5.15 | –
Cc1cc(C)nc(NS(=O)(=O)c2ccc(Nc3c4ccc(Cl)cc4nc4c(C(=O)Nc5ccc(S(N)(=O)=O)cc5)cccc34)cc2)n1 | < 4.28 | 4.37 | –
O=C1c2cccc(NCCCNCCO)c2C(=O)c2cccc(NCCCNCCO)c21 | – | – | inactive
COc1ccc(-c2coc3cc(O)ccc3c2=O)cc1 | < 3.70 | < 4.00 | –
NC1CCCCC1NCCNC1CCCCC1N (stereo not given) | < 3.70 | 3.75 | –
C=C1C(OC(=O)C(OC(C)=O)C(c2ccccc2)N(C)C)C[C@H](O)[C@]2(C)C1C[C@@H]1CC(OC(C)=O)C(C)=C([C@@H](OC(C)=O)C2O)C1(C)C (stereo not given in full) | – | – | inactive
O=c1[nH]c2ccccc2c2oc(-c3ccccc3)nc12 | < 4.00 | < 4.00 | –
Cc1[nH]n(-c2ccccc2)c(=O)c1/C=N\C(N)=S | < 3.70 | 3.74 | –
Nc1ncc(C2[C@H](CNC(=O)c3cc(Br)c[nH]3)C(CNC(=O)c3cc(Br)c[nH]3)[C@@H]2c2cnc(N)[nH]2)[nH]1 (stereo not given in full) | – | – | active
NC(=O)C1C(=O)Oc2cccnc21 (stereo not given) | – | – | inactive
NCCn1cnc2nc(NC(=O)c3ccccc3)[nH]c(=O)c21 | < 3.78 | 4.04 | –
